We go through 2 compounds from EP2949319A1, “PHARMACEUTICAL COMPOSITIONS COMPRISING AN ACTIVE AGENT” (Galenicum Health S.L., priority 2014, dated 2015).

≈ marks a conversion by molar mass, not a printed value.

For data set [1] the following is noted: cited from earlier work.
A short description of data set [2]: Dissolution of the active agent in the capsule fill (glycerol monocaprylocaprate, BHT). As to conditions: glycerol monocaprylocaprate and BHT, 20-23 °C, stirred. Format: physicochemical. The text has this: Another advantage of the process as herein disclosed is that it is highly reproducible and robust independently of the water content of the active agent. […] However, when the active agent has a water content higher than 0.05% measured by Karl Fischer titration, the components of the fill are completely dissolved at the same range of temperatures. Furthermore, the inventors have been able to establish an optimum range of working temperatures able to obtain a fill solution completely dissolved homogeneously with active agents with a water content higher than 0.05 % w/w.
• Glycerol monocaprylocaprate was added to a stainless steel tank equipped with cooling jacket to keep it at a temperature of 20-23 °C. It was stirred until completely dissolved. • Butylhydroxytoluene (BHT) was added to the tank and stirred until completely dissolved. • Finally dutasteride anhydrous was added to the tank. • The resulting solution was kept at a range of temperature of 20-23 °C. […] Water content of the active agent and the range of temperatures were studied to avoid dissolution problems.

For the compound `C[C@]12C=CC(=O)N[C@@H]1CC[C@@H]1[C@@H]2CC[C@]2(C)[C@@H](C(=O)Nc3cc(C(F)(F)F)ccc3C(F)(F)F)CC[C@@H]12` [Dutasteride, 17-beta-N-[2,5-bis(trifluoromethyl)]phenylcarbamoyl-4-aza-5-alpha-androst-1-en-3-one], the solubility in water in data set [1] is 0.38 ng/mL (≈ 0.719 nM).

Take `C[C@]12C=CC(=O)N[C@@H]1CC[C@@H]1[C@@H]2CC[C@]2(C)[C@@H](C(=O)Nc3cc(C(F)(F)F)ccc3C(F)(F)F)CC[C@@H]12` [dutasteride anhydrous, 17-beta-N-[2,5-bis(trifluoromethyl)]phenylcarbamoyl-4-aza-5-alpha-androst-1-en-3-one]: the “dissolution in the capsule fill solution” value in data set [2] was “not possible to obtain a completely dissolved solution”.
